# Data from ChEMBL document CHEMBL1144623, “Sesterterpene sulfates as isocitrate lyase inhibitors from tropical sponge Hippospongia sp” (Bioorg Med Chem Lett, 2007).
# How the values were obtained:
# [1] = Inhibition of Magnaporthe grisea Guy 11 malate synthase; parameters: species or system Pyricularia grisea
# [2] = tested on: Pyricularia grisea; assay: Growth inhibition of Magnaporthe grisea Guy 11 in presence of sodium acetate after 6 days; format: functional; conditions: Guy 11, 144 h
# [3] = tested on: Pyricularia grisea; assay: Reduction of appressorium formation in wild type Magnaporthe grisea Guy 11 after 14 hrs; format: functional, organism-based
# [4] = molecular target: Isocitrate lyase (Magnaporthe oryzae (strain 70-15 / FGSC 8958) (Rice blast fungus)(Pyricularia oryzae), UniProt P0CT06); assay: Inhibition of Magnaporthe grisea Guy 11 isocitrate lyase; parameters: species or system Pyricularia grisea
# [5] = tested on: Pyricularia grisea; assay: Growth inhibition of Magnaporthe grisea Guy 11 in presence of glucose after 6 days; format: functional; conditions: Guy 11, 144 h
# Isocitrate lyase, sequence (P0CT06 whole entry): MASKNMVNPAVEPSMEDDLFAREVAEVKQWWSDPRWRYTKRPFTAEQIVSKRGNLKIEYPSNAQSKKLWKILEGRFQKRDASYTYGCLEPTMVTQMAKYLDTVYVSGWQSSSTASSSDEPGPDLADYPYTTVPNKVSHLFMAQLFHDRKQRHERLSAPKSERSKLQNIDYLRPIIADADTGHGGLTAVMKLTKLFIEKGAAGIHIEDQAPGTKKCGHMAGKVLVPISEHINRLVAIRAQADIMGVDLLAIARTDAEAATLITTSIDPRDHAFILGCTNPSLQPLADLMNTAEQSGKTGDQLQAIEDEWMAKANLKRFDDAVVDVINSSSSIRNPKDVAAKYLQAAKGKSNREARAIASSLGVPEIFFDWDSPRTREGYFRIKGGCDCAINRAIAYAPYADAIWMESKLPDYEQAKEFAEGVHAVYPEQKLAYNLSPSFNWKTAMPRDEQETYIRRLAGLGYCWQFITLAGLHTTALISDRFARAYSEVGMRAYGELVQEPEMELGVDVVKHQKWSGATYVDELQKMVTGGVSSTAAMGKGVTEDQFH
Compound,IC50 [1] [µM],MIC [2] [µM],Activity [3],IC50 [4] [µM],MIC [5] [µM]
CC1=CC[C@H]2C(C)(C)CCC[C@]2(C)[C@H]1C[C@@H](O)[C@H](C)CCC/C(C)=C/Cc1cc(O)ccc1O [HYDROHALISULFATE 1],274,105,Dose-dependent effect,15,843
C=C1CCC[C@@H]2[C@@](C)(CCC(CCCc3ccoc3)COS(=O)(=O)O)[C@H](C)CC[C@]12C (some centres undefined) [HALISULFATE 5],1150,107,Dose-dependent effect,67.4,853
O=C(O)CC[N+](=O)[O-],1570,2940,–,92.4,> 3360
CC1=CC[C@H]2C(C)(C)CCC[C@]2(C)[C@H]1C[C@@H](OS(=O)(=O)O)[C@H](C)CCC/C(C)=C/Cc1cc(O)ccc1O [HALISULFATE 1],227,87.7,Dose-dependent effect,12.6,701
